This test has as its target T1, Acetylcholinesterase (Rattus norvegicus) (UniProt P37136).
T1 sequence (whole entry): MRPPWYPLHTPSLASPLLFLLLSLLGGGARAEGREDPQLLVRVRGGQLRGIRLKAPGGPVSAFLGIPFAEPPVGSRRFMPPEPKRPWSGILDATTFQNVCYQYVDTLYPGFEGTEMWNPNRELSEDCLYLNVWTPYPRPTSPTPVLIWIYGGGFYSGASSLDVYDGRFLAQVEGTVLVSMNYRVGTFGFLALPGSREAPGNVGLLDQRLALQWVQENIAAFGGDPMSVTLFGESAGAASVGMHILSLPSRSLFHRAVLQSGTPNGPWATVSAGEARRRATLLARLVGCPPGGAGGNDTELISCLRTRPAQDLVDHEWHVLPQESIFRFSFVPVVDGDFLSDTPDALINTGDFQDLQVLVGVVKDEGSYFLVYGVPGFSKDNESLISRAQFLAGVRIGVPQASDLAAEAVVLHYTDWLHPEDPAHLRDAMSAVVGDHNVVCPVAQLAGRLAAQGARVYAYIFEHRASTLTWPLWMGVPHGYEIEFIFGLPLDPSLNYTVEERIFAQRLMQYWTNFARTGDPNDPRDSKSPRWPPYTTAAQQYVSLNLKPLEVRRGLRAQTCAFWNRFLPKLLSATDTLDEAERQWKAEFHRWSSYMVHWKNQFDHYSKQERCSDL
The test is described as follows: Inhibitory activity against AChE from rat brain homogenate. It counts as functional. The following applies: concentration not given here.

Our source for the inhibition values is ChEMBL document CHEMBL1149443, “Synthesis of the novel series of bispyridinium compounds bearing (E)-but-2-ene linker and evaluation of their reactivation activity against chlorpyrifos-inhibited acetylcholinesterase” (Bioorg Med Chem Lett, 2006).

Compound `CCOP(=S)(OCC)Oc1nc(Cl)c(Cl)cc1Cl` yielded an inhibition of 95%.
